Data on five compounds can be found in US9550739B2, “Molecules having certain pesticidal utilities, and intermediates, compositions, and processes related thereto” (priority 2014, dated 2017).

What all share (format): in vivo
For series [1], the system named is Green Peach Aphid (Myzus persicae, MYZUPE) ("GPA"). The series can be described thus: Bioassays on Green Peach Aphid (GPA), cabbage seedling foliar spray. The conditions noted are these: 72 h, 200 ppm foliar spray on cabbage seedlings, three days, Abbott corrected % control, read-out: GPA % Control (or Mortality) rating. The method, then:
Certain molecules disclosed in this document were tested against GPA using procedures described in the following example. In the reporting of the results, the “GPA Rating Table” was used (See Table Section).
Cabbage seedlings grown in 3-inch pots, with 2-3 small (3-5 cm) true leaves, were used as test substrate. The seedlings were infested with 20-50 GPA (wingless adult and nymph stages) one day prior to chemical application. Four pots with individual seedlings were used for each treatment. Test compounds (2 mg) were dissolved in 2 mL of acetone/methanol (1:1) solvent, forming stock solutions of 1000 ppm test compound. The stock solutions were diluted 5× with 0.025% Tween 20 in water to obtain the solution at 200 ppm test compound. A hand-held aspirator-type sprayer was used for spraying a solution to both sides of […] leaves until runoff. Reference plants (solvent check) were sprayed with the diluent only containing 20% by volume of acetone/methanol (1:1) solvent. Treated plants were held in a holding room for three days at approximately 25° C. and ambient relative humidity (RH) prior to grading. Evaluation was conducted by counting the number of live aphids per plant under a microscope. Percent Control was measured by using Abbott's correction formula (W. S. Abbott, “A Method of Computing the Effectiveness of an Insecticide” J. Econ. Entomol. 18 (1925), pp. 265-267) as follows. Corrected % Control=100*(X−Y)/X • where • X=No. of live aphids on solvent check plants and • Y=No. of live aphids on treated plants

The subject of series [2] is Beet Armyworm (Spodoptera exigua, LAPHEG) ("BAW"). The series can be described thus: Bioassays on Beet Armyworm (BAW), 128-well diet tray assay. Conditions: Spodoptera exigua, 168 h; second instar BAW larvae, 50 μg/cm^2 on artificial diet, five to seven days, 25° C.; read-out: BAW % Control (or Mortality) rating. The method, boiled down:
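Second-instar larvae, one to five per well, were placed on artificial diet surface-treated with 50 μg/cm^2 compound in 90:10 acetone-water and dried, eight wells per compound. Trays were held at 25° C, 14:10 light-dark, for five to seven days. Percent mortality per well was averaged over the eight wells.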

Series [3] has as its system Cabbage Looper (Trichoplusia ni, TRIPNI) ("CL"). The series can be described thus: Bioassays on Cabbage Looper (CL), 128-well diet tray assay. The conditions noted are these: Trichoplusia ni, 168 h, read-out: CL % Control (or Mortality) rating. The essentials: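 Second instar larvae (one to five per well) placed on artificial diet treated with 50 μg/cm^2 compound in acetone-water, eight wells per compound. Held at 25° C, 14:10 light-dark for five to seven days; percent mortality averaged across wells.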

The test system of series [4] is Yellow Fever Mosquito (Aedes aegypti, AEDSAE) ("YFM"). Conditions: about 1 day-old larvae, 4000 ppm master solution diluted, 3 days, room temperature. The method, boiled down:
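Compounds from 4000 ppm DMSO master plates, diluted in 90:10 water:acetone, dispensed into 96-well plates, six replicates. About 1-day-old larvae added in liver-powder water. Wells covered, held 3 days at room temperature, then scored for mortality.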

SMILES strings stand for the structures.

The mortality is the share of the test organisms that died. On to `O=C(Nc1ccc(-c2ncn(-c3ccc(OC(F)(F)F)cc3)n2)cc1)c1cccc(-c2ccccc2)c1` [F24, N-(4-(1-(4-(trifluoromethoxy)phenyl)-1H-1,2,4-triazol-3-yl)phenyl)-[1,1′-biphenyl]-3-carboxamide], for which the mortality at 200 ppm in series [1] was 0 to 80%. The mortality at 50 µg/cm2 in series [2] and in series [3] was 50 to 100% throughout. The “YFM % Control (or Mortality) rating” value in series [4] is “D (No activity noticed in this bioassay)”.
`CCOc1ccccc1-c1cccc(C(=O)Nc2ccc(-c3ncn(-c4ccc(OC(F)(F)F)cc4)n3)cc2)c1` [F38, 2′-Ethoxy-N-(4-(1-(4-(trifluoromethoxy)phenyl)-1H-1,2,4-triazol-3-yl)phenyl)-[1,1′-biphenyl]-3-carboxamide]: the mortality at 200 ppm in series [1] fell in the range of 0 to 80%. Besides, the mortality at 50 µg/cm2 in series [2] and in series [3] was 50 to 100% throughout. In addition, the “YFM % Control (or Mortality) rating” value in series [4] is “A (80-100)”.
For `O=C(NCCc1ccc(-c2ncn(-c3ccc(OC(F)(F)F)cc3)n2)cc1)c1ccc(F)c(-c2ccccc2F)c1` [F55, 2′,6-Difluoro-N-(4-(1-(4-(trifluoromethoxy)phenyl)-1H-1,2,4-triazol-3-yl)phenethyl)-[1,1′-biphenyl]-3-carboxamide], the mortality at 200 ppm in series [1] was 0 to 80%. For the same compound, the mortality at 50 µg/cm2 in series [2] and in series [3] was 50 to 100% throughout. The “YFM % Control (or Mortality) rating” value in series [4] is given as “D (No activity noticed in this bioassay)”.
For `O=C(Nc1ccc(-c2ncn(-c3ccc(C(F)(F)F)cc3)n2)cc1)c1ccc(F)c(-c2ccccc2F)c1` [F59, 2′,6-Difluoro-N-(4-(1-(4-(trifluoromethyl)phenyl)-1H-1,2,4-triazol-3-yl)phenyl)-[1,1′-biphenyl]-3-carboxamide], in series [1], the mortality at 200 ppm stood at 0%. In addition, the mortality at 50 µg/cm2 in series [2] and in series [3] was 50 to 100% in each case. Further, the “YFM % Control (or Mortality) rating” value in series [4] is listed as “A (80-100)”.
On to `COc1ccccc1-c1cccc(C(=O)Nc2ccc(-c3ncn(-c4ccc(C(F)(F)F)cc4)n3)cc2)c1` [F60, 2′-Methoxy-N-(4-(1-(4-(trifluoromethyl)phenyl)-1H-1,2,4-triazol-3-yl)phenyl)-[1,1′-biphenyl]-3-carboxamide], for which, in series [1], the mortality at 200 ppm is 0 to 80%. The mortality at 50 µg/cm2 in series [2] and in series [3] was 50 to 100% throughout. In addition, the “YFM % Control (or Mortality) rating” value in series [4] is “A (80-100)”.
